# From PubChem BioAssay AID2060897 (Molecular Pharmacology Branch, DTP, NCI, 2025)
# System: 966289-007-R4-J1-PDC complex spheroid viability
# Assay: Anticancer human tumor 966289-007-R4-J1-PDC patient-derived pancreatic adenocarcinoma cell line growth inhibition [RAS]
# Conditions: for IC50: curve of first compound; for viability, T/C: stronger effect = lower value
# Source text: RAS pathway inhibitors in Combinations in Complex Spheroids
# A high-throughput screen of multi-cell type tumor spheroids was designed to identify active combinations of RAS pathway inhibitors and targeted small molecules. Complex spheroids include a stromal component modeled by human endothelial cells (HUVEC) and fibroblasts modeled by human mesenchymal stem cells (MSCs). The concentration ranges selected for each drug and investigational agent were based upon clinically achievable concentrations if the clinical Cmax of the agent was known.
# Compounds. The drugs and investigational agents: abemaciclib (NSC768073), cobimetinib (NSC768068), divarasib (GDC6063, NSC841802), docetaxel (NSC628503), GDC-1971 (RLY-1971, NSC841576), gemcitabine (NSC613327), inavolisib (NSC800729), ipatasertib (NSC767898), KB-0742 (NSC834161), MRTX-1133 (NSC836407), osimertinib (NSC779217), RMC-4630 (NSC839698), RMC-6236 (NSC851965), RMC-6291 (NSC852671), Ro-3306 (NSC812927), sapanisertib (NSC764658), SN-38 (NSC673596), staurosporine (NSC755774), SY5609 (NSC837396), and tovorafenib (DAY101, NSC766906), were obtained from the National Cancer Institute (NCI) Developmental Therapeutics Program Chemical Repository. The FDA-approved anticancer drug set is available from the NCI Developmental Therapeutics Program. […] The stock solutions were prepared in dimethyl sulfoxide (DMSO, Sigma-Aldrich, St. Louis, MO, cat. D2650) at 800-fold the tested concentration and stored at -70 degrees C prior to their use. All drugs and investigational agents were tested over a range starting from a high concentration at or near the clinical Cmax and decreasing in half-log increments. If the clinical Cmax for an agent had not been determined, the highest concentration tested was 10 microM.
# Cell Culture. All cells were maintained in an incubator at 37 degrees C and 5% CO2 with 95% humidity. The PDC lines were cultured according to standard operating procedures established by the NCI PDMR. All PDCs were thawed and cultured in Matrigel-coated flasks prepared with a working solution of 1X Ham's F-12 nutrient mix, without supplementation (Invitrogen, Waltham, MA, cat. 11765054), 100 U/mL penicillin-streptomycin (Invitrogen, cat. 15140122), and 2.5% Matrigel (Corning Inc., Corning, NY, cat. 354248) for the first three passages. The 362531-283-R-J2-PDC and 782815-120-R-J1-PDC lines were cultured in 6C/Colon 1B media, which includes advanced DMEM/F-12 (Thermo Fisher Scientific, cat. 12634028), 10 mM HEPES (Thermo Fisher Scientific, cat. 15630080), 1X GlutaMAX supplement (Thermo Fisher Scientific, cat. 35050061), 0.1 mg/mL primocin (InvivoGen, San Diego, CA, cat. ant-pm-2), 10% defined fetal bovine serum, heat inactivated (HyClone Laboratories Inc., Logan, UT, cat. SH30070.03HI), 50% L-WRN conditioned media (ATCC, cat. CRL-3276), 1.25 mM N-Acetyl-L-cysteine (Sigma-Aldrich, cat. A9165), 10 mM nicotinamide (Sigma-Aldrich, cat. N0636), 1X B-27 supplement (Thermo Fisher Scientific, cat. 17504044), 1X N-2 supplement (Thermo Fisher Scientific, cat. 17502048), 50 ng/mL human EGF (Thermo Fisher Scientific, cat. PHG0311), and 10 microM Y-27632 dihydrochloride (Tocris Bioscience, cat. 1254). The K12877-001-R-J1-PDC line was cultured in 6I media, which includes all 6C/Colon 1B media plus 10 ng/mL human FGF-10 (PeproTech, cat. 100-26), 1 ng/mL human FGF-2 (PeproTech, cat. 100-18B), 1 µM prostaglandin E2 (Tocris Bioscience, cat. 2296), […] hydrocortisone (Sigma-Aldrich, cat. H4001), and […] bovine insulin (Sigma-Aldrich, cat. I6634). The K86415-001-R-J1-PDC line was cultured in 6D media, which includes all 6C/Colon 1B media components minus the L-WRN conditioned media. The 485176-168-R4-J1-PDC was cultured in PANC media, which includes all 6C/Colon 1B media plus 100 ng/mL human FGF-10 (PeproTech, cat. 100-26), 500 nM SB-431542 (Selleckchem, cat. S1067), and 10 nM gastrin (Tocris Bioscience, cat. 3006). […]
# [1] = second compound 0.0316 µM, first compound 0.0316 µM
# [2] = second compound 0.0316 µM, first compound 0.1 µM
# [3] = second compound 0.0316 µM, first compound 0.316 µM
# [4] = second compound 0.0316 µM, first compound 1 µM
# [5] = second compound 0.0316 µM, first compound 3.16 µM
# [6] = second compound 0.0316 µM, first compound 10 µM
# [7] = second compound 0.1 µM, first compound 0.0316 µM
# [8] = second compound 0.1 µM, first compound 0.1 µM
# [9] = second compound 0.1 µM, first compound 0.316 µM
# [10] = second compound 0.1 µM, first compound 1 µM
# [11] = second compound 0.1 µM, first compound 3.16 µM
# [12] = second compound 0.1 µM, first compound 10 µM
# [13] = second compound 0.316 µM, first compound 0.0316 µM
# [14] = second compound 0.316 µM, first compound 0.1 µM
# [15] = second compound 0.316 µM, first compound 0.316 µM
# [16] = second compound 0.316 µM, first compound 1 µM
# [17] = second compound 0.316 µM, first compound 3.16 µM
# [18] = second compound 0.316 µM, first compound 10 µM
# [19] = second compound 1 µM, first compound 0.0316 µM
# [20] = second compound 1 µM, first compound 0.1 µM
# [21] = second compound 1 µM, first compound 0.316 µM
# [22] = second compound 1 µM, first compound 1 µM
# [23] = second compound 1 µM, first compound 3.16 µM
# [24] = second compound 1 µM, first compound 10 µM
# [25] = second compound 3.16 µM, first compound 0.0316 µM
# [26] = second compound 3.16 µM, first compound 0.1 µM
# [27] = second compound 3.16 µM, first compound 0.316 µM
# [28] = second compound 3.16 µM, first compound 1 µM
# [29] = second compound 3.16 µM, first compound 3.16 µM
# [30] = second compound 3.16 µM, first compound 10 µM
# [31] = second compound 10 µM, first compound 0.0316 µM
# [32] = second compound 10 µM, first compound 0.1 µM
# [33] = second compound 10 µM, first compound 0.316 µM
# [34] = second compound 10 µM, first compound 1 µM
# [35] = second compound 10 µM, first compound 3.16 µM
# [36] = second compound 10 µM, first compound 10 µM
# 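Also: spheroids exposed to agents for one week before readout.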
# 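For viability, T/C in this document: percent viability relative to DMSO vehicle control wells as 100%.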
structure (smiles),measurement,setting,value
CC1(O)CCCC1n1c(=O)c(C(F)F)cc2cnc(NC3CCN(S(C)(=O)=O)CC3)nc21 (stereo unspecified) + C#Cc1c(F)ccc2cc(O)cc(-c3ncc4c(N5CC6CCC(C5)N6)nc(OCC56CCCN5CC(F)C6)nc4c3F)c12,IC50,second compound 0.0316 µM,142 nM
same,IC50,second compound 0.1 µM,181 nM
same,IC50,second compound 0.316 µM,232 nM
same,IC50,second compound 1 µM,220 nM
same,IC50,second compound 3.16 µM,221 nM
same,IC50,second compound 10 µM,115 nM
same,"viability, T/C",[1],138%
same,"viability, T/C",[2],57%
same,"viability, T/C",[3],28.4%
same,"viability, T/C",[4],33.5%
same,"viability, T/C",[5],32.1%
same,"viability, T/C",[6],5.74%
same,"viability, T/C",[7],124%
same,"viability, T/C",[8],70.9%
same,"viability, T/C",[9],26.7%
same,"viability, T/C",[10],33.5%
same,"viability, T/C",[11],27.7%
same,"viability, T/C",[12],5.83%
same,"viability, T/C",[13],128%
same,"viability, T/C",[14],71.8%
same,"viability, T/C",[15],33.9%
same,"viability, T/C",[16],35.5%
same,"viability, T/C",[17],31.4%
same,"viability, T/C",[18],5.81%
same,"viability, T/C",[19],116%
same,"viability, T/C",[20],72.4%
same,"viability, T/C",[21],30.1%
same,"viability, T/C",[22],33%
same,"viability, T/C",[23],33.2%
same,"viability, T/C",[24],5.07%
same,"viability, T/C",[25],128%
same,"viability, T/C",[26],73.5%
same,"viability, T/C",[27],30.6%
same,"viability, T/C",[28],32.5%
same,"viability, T/C",[29],33.3%
same,"viability, T/C",[30],5.29%
same,"viability, T/C",[31],106%
same,"viability, T/C",[32],47.8%
same,"viability, T/C",[33],33%
same,"viability, T/C",[34],30.2%
same,"viability, T/C",[35],38.3%
same,"viability, T/C",[36],0.93%
CCN1CCN(Cc2ccc(Nc3ncc(F)c(-c4cc(F)c5nc(C)n(C(C)C)c5c4)n3)nc2)CC1 + C#Cc1c(F)ccc2cc(O)cc(-c3ncc4c(N5CC6CCC(C5)N6)nc(OCC56CCCN5CC(F)C6)nc4c3F)c12,IC50,second compound 0.0316 µM,> 1000 nM
same,IC50,second compound 0.1 µM,> 1000 nM
same,IC50,second compound 0.316 µM,> 1000 nM
same,IC50,second compound 1 µM,> 1000 nM
same,IC50,second compound 3.16 µM,> 1000 nM
same,IC50,second compound 10 µM,> 1000 nM
same,"viability, T/C","second compound 0.0316 µM, first compound 0.00316 µM",121%
same,"viability, T/C","second compound 0.0316 µM, first compound 0.01 µM",102%
same,"viability, T/C",[1],107%
same,"viability, T/C",[2],92.8%
same,"viability, T/C",[3],92.1%
same,"viability, T/C",[4],71.8%
same,"viability, T/C","second compound 0.1 µM, first compound 0.00316 µM",113%
same,"viability, T/C","second compound 0.1 µM, first compound 0.01 µM",108%
same,"viability, T/C",[7],102%
same,"viability, T/C",[8],82.7%
same,"viability, T/C",[9],92.8%
same,"viability, T/C",[10],71.1%
same,"viability, T/C","second compound 0.316 µM, first compound 0.00316 µM",114%
same,"viability, T/C","second compound 0.316 µM, first compound 0.01 µM",112%
same,"viability, T/C",[13],100%
same,"viability, T/C",[14],95.9%
same,"viability, T/C",[15],84.6%
same,"viability, T/C",[16],69.9%
same,"viability, T/C","second compound 1 µM, first compound 0.00316 µM",104%
same,"viability, T/C","second compound 1 µM, first compound 0.01 µM",103%
same,"viability, T/C",[19],116%
same,"viability, T/C",[20],103%
same,"viability, T/C",[21],79.4%
same,"viability, T/C",[22],81.7%
same,"viability, T/C","second compound 3.16 µM, first compound 0.00316 µM",108%
same,"viability, T/C","second compound 3.16 µM, first compound 0.01 µM",109%
same,"viability, T/C",[25],113%
same,"viability, T/C",[26],93.3%
same,"viability, T/C",[27],88.8%
same,"viability, T/C",[28],77%
same,"viability, T/C","second compound 10 µM, first compound 0.00316 µM",108%
same,"viability, T/C","second compound 10 µM, first compound 0.01 µM",90.3%
same,"viability, T/C",[31],121%
same,"viability, T/C",[32],89.2%
same,"viability, T/C",[33],93.4%
same,"viability, T/C",[34],66%
C[C@@H](NC(=O)c1ncnc(N)c1Cl)c1ncc(C(=O)Nc2cc(C(F)(F)F)c(Cl)cn2)s1 + C#Cc1c(F)ccc2cc(O)cc(-c3ncc4c(N5CC6CCC(C5)N6)nc(OCC56CCCN5CC(F)C6)nc4c3F)c12,IC50,second compound 0.0316 µM,> 10000 nM
same,IC50,second compound 0.1 µM,> 10000 nM
same,IC50,second compound 0.316 µM,> 10000 nM
same,IC50,second compound 1 µM,> 10000 nM
same,IC50,second compound 3.16 µM,> 10000 nM
same,IC50,second compound 10 µM,> 10000 nM
same,"viability, T/C",[1],109%
same,"viability, T/C",[2],118%
same,"viability, T/C",[3],130%
same,"viability, T/C",[4],119%
same,"viability, T/C",[5],117%
same,"viability, T/C",[6],86.8%
same,"viability, T/C",[7],111%
same,"viability, T/C",[8],114%
same,"viability, T/C",[9],103%
same,"viability, T/C",[10],106%
same,"viability, T/C",[11],109%
same,"viability, T/C",[12],95.7%
same,"viability, T/C",[13],105%
same,"viability, T/C",[14],126%
same,"viability, T/C",[15],124%
same,"viability, T/C",[16],111%
same,"viability, T/C",[17],112%
same,"viability, T/C",[18],75.7%
same,"viability, T/C",[19],105%
same,"viability, T/C",[20],123%
same,"viability, T/C",[21],134%
same,"viability, T/C",[22],130%
same,"viability, T/C",[23],130%
same,"viability, T/C",[24],87.6%
same,"viability, T/C",[25],119%
same,"viability, T/C",[26],110%
same,"viability, T/C",[27],118%
same,"viability, T/C",[28],122%
same,"viability, T/C",[29],123%
same,"viability, T/C",[30],86%
same,"viability, T/C",[31],107%
same,"viability, T/C",[32],108%
same,"viability, T/C",[33],134%
same,"viability, T/C",[34],125%
same,"viability, T/C",[35],124%
same,"viability, T/C",[36],91.3%
